Source: the supplement of paper PMC12137928
Structures can show the parent of a compound that is named as a salt. Blank lines part the entries; values can stand above or below the compound they belong to.

Test system: HCT116
Settings: 72 h
In short: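 In 1536-well plates, 250 HCT116 cells per well were seeded and left for 5 h to attach. Luminescence from CellTiter-Glo was set against vehicle (0%) and positive control (-100%), and pattern correction was applied. IC50 and maximal efficacy come from four-parameter Hill fitting.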

Structure (SMILES): C/C(=C1\CCOC(=O)S1)N(C=O)Cc1cnc(C)nc1N [Cycotiamine]
IC50 cell viability (ICRF193 0 nM): > 45.8 µM | IC50 cell viability (ICRF193 200 nM): > 45.8 µM

Structure (SMILES): C[C@@H](O)[C@H]1C(=O)N2C(C(=O)O)=C(SCCNC=N)C[C@H]12 [Imipenem]
IC50 cell viability (ICRF193 0 nM): > 45.8 µM | IC50 cell viability (ICRF193 200 nM): > 45.8 µM

Structure (SMILES): CCC(C)C(C)(COC(N)=O)COC(N)=O (stereo not given) [Mebutamate]
IC50 cell viability (ICRF193 0 nM): > 45.8 µM | IC50 cell viability (ICRF193 200 nM): > 45.8 µM

Structure (SMILES): NCCC[C@H](N)C(=O)O [ORNITHINE HYDROCHLORIDE]
IC50 cell viability (ICRF193 0 nM): > 45.8 µM | IC50 cell viability (ICRF193 200 nM): > 45.8 µM

Structure (SMILES): CC(=O)OCC(=O)[C@@]1(O)[C@H](C)C[C@H]2[C@@H]3CCC4=CC(=O)C=C[C@]4(C)[C@@]3(F)[C@@H](O)C[C@@]21C [Dexamethasone acetate]
IC50 cell viability (ICRF193 0 nM): > 45.8 µM | IC50 cell viability (ICRF193 200 nM): > 45.8 µM

Structure (SMILES): Cc1noc(NS(=O)(=O)c2ccc(N)cc2)c1C [Sulfisoxazole]
IC50 cell viability (ICRF193 0 nM): > 45.8 µM | IC50 cell viability (ICRF193 200 nM): > 45.8 µM

Structure (SMILES): CCC(=O)O[C@]1(C(=O)COC(C)=O)CC[C@H]2[C@@H]3CCC4=CC(=O)CC[C@]4(C)[C@H]3[C@@H](O)C[C@@]21C [HYDROCORTISONE ACEPONATE]
IC50 cell viability (ICRF193 0 nM): > 45.8 µM | IC50 cell viability (ICRF193 200 nM): > 45.8 µM

Structure (SMILES): Nc1ccc(S(N)(=O)=O)cc1 [Sulfanilamide]
IC50 cell viability (ICRF193 0 nM): > 45.8 µM | IC50 cell viability (ICRF193 200 nM): > 45.8 µM

Structure (SMILES): CC(=O)OCC(=O)[C@@]1(O)CC[C@H]2[C@@H]3CCC4=CC(=O)CC[C@]4(C)[C@H]3[C@@H](O)C[C@@]21C [Hydrocortisone acetate]
IC50 cell viability (ICRF193 0 nM): > 45.8 µM | IC50 cell viability (ICRF193 200 nM): > 45.8 µM

Structure (SMILES): CCC(=O)O[C@H]1CC[C@H]2[C@@H]3CC[C@H]4CC(=O)[C@H](C)C[C@]4(C)[C@H]3CC[C@]12C [Drostanolone propionate]
IC50 cell viability (ICRF193 0 nM): > 45.8 µM | IC50 cell viability (ICRF193 200 nM): > 45.8 µM

Structure (SMILES): CC#CCC(C)[C@H](O)/C=C/[C@@H]1[C@H]2c3cccc(CCCC(=O)O)c3O[C@H]2C[C@H]1O (mixture of isomers) [Beraprost sodium]
IC50 cell viability (ICRF193 0 nM): > 45.8 µM | IC50 cell viability (ICRF193 200 nM): > 45.8 µM

Structure (SMILES): OC[C@H]1O[C@@H](Oc2ccc(O)cc2)[C@H](O)[C@@H](O)[C@@H]1O [Arbutin]
IC50 cell viability (ICRF193 0 nM): > 45.8 µM | IC50 cell viability (ICRF193 200 nM): > 45.8 µM

Structure (SMILES): NC(=S)NS(=O)(=O)c1ccc(N)cc1 [Sulfathiourea]
IC50 cell viability (ICRF193 0 nM): > 45.8 µM | IC50 cell viability (ICRF193 200 nM): > 45.8 µM

Structure (SMILES): CN1CCN(C(=O)O[C@H]2c3nccnc3C(=O)N2c2ccc(Cl)cn2)CC1 [Eszopiclone]
IC50 cell viability (ICRF193 0 nM): > 45.8 µM | IC50 cell viability (ICRF193 200 nM): > 45.8 µM

Structure (SMILES): CCCCCCCC(=O)O [Octanoic acid]
IC50 cell viability (ICRF193 0 nM): > 45.8 µM | IC50 cell viability (ICRF193 200 nM): > 45.8 µM

The next lines start with the values.

IC50 cell viability (ICRF193 0 nM): > 45.8 µM | IC50 cell viability (ICRF193 200 nM): > 45.8 µM
Structure (SMILES): C1CCN2C[C@@H]3C[C@@H](CN4CCCC[C@@H]34)[C@H]2C1 [Sparteine]

IC50 cell viability (ICRF193 0 nM): > 45.8 µM | IC50 cell viability (ICRF193 200 nM): > 45.8 µM
Structure (SMILES): CN(C)CCOC(c1ccccc1)c1ccc(Br)cc1 (stereo not given) [Bromodiphenhydramine]

IC50 cell viability (ICRF193 0 nM): > 45.8 µM | IC50 cell viability (ICRF193 200 nM): > 45.8 µM
Structure (SMILES): OC(CCCN1CCCCC1)(c1ccccc1)c1ccccc1 [Diphenidol]

IC50 cell viability (ICRF193 0 nM): > 45.8 µM | IC50 cell viability (ICRF193 200 nM): > 45.8 µM
Structure (SMILES): C[C@H](CN1CCCC1)C(=O)c1ccc(C(F)(F)F)cc1 [Lanperisone hydrochloride]

IC50 cell viability (ICRF193 0 nM): > 45.8 µM | IC50 cell viability (ICRF193 200 nM): > 45.8 µM
Structure (SMILES): COc1cc(NS(=O)(=O)c2ccc(N)cc2)ncn1 [Sulfamonomethoxine]

IC50 cell viability (ICRF193 0 nM): > 45.8 µM | IC50 cell viability (ICRF193 200 nM): > 45.8 µM
Structure (SMILES): CC[N+](C)(C)Cc1ccccc1Br [Bretylium tosylate]

IC50 cell viability (ICRF193 0 nM): > 45.8 µM | IC50 cell viability (ICRF193 200 nM): > 45.8 µM
Structure (SMILES): Cc1ccnc(NS(=O)(=O)c2ccc(N)cc2)n1 [Sulfamerazine]

IC50 cell viability (ICRF193 0 nM): > 45.8 µM | IC50 cell viability (ICRF193 200 nM): > 45.8 µM
Structure (SMILES): CN(CC(=O)N1CCOCC1)Cc1c(Cl)cccc1NC(=O)c1ccccc1 [Fominoben hydrochloride]

IC50 cell viability (ICRF193 0 nM): > 45.8 µM | IC50 cell viability (ICRF193 200 nM): > 45.8 µM
Structure (SMILES): Nc1ccc(C(=O)NCC(=O)O)cc1 [Aminohippuric acid]

IC50 cell viability (ICRF193 0 nM): > 45.8 µM | IC50 cell viability (ICRF193 200 nM): > 45.8 µM
Structure (SMILES): Cn1nnc(-c2ccc(-c3ccc(N4C[C@@H](CO)OC4=O)cc3F)cn2)n1 [(S)-Tedizolid]

IC50 cell viability (ICRF193 0 nM): > 45.8 µM | IC50 cell viability (ICRF193 200 nM): > 45.8 µM
Structure (SMILES): CCC(=O)Oc1ccc2c(c1)CC[C@@H]1[C@@H]2CC[C@@]2(C)[C@H]1C[C@@H](OC(=O)CC)[C@@H]2OC(=O)CC [Estriol tripropionate]

IC50 cell viability (ICRF193 0 nM): > 45.8 µM | IC50 cell viability (ICRF193 200 nM): > 45.8 µM
Structure (SMILES): CCCCOc1cc(C(=O)OCCN(CC)CC)ccc1N [Benoxinate hydrochloride]

IC50 cell viability (ICRF193 0 nM): > 45.8 µM | IC50 cell viability (ICRF193 200 nM): > 45.8 µM
Structure (SMILES): CCC(C)(C)c1ccc(CC(C)CN2C[C@@H](C)O[C@@H](C)C2)cc1 (stereo not given in full) [Amorolfine hydrochloride]

IC50 cell viability (ICRF193 0 nM): > 45.8 µM | IC50 cell viability (ICRF193 200 nM): > 45.8 µM
Structure (SMILES): CCOC(=O)[C@H](CCc1ccccc1)N[C@@H](C)C(=O)N1C(=O)N(C)C[C@H]1C(=O)O [Imidapril hydrochloride]

IC50 cell viability (ICRF193 0 nM): > 45.8 µM | IC50 cell viability (ICRF193 200 nM): > 45.8 µM
Structure (SMILES): COc1ccc(NS(=O)(=O)c2ccc(N)cc2)nn1 [Sulfamethoxypyridazine]
